What was measured:
[1] = UV absorption properties (λmax, molar extinction coefficient ε, efficiency E 1%, 1 cm); assay type: physicochemical
[2] = Critical wavelength (λcrit), approximate in-house measurement; assay type: physicochemical
From the text: As the precise test for critical wavelength was unable to be replicated exactly by the inventors due to the need for specialist equipment and a specific calibration of the spectrophotometer, these values are only approximate to a degree. […] This represents a highly useful result and so, compounds based around this benzoyl substitution pattern shown, are especially preferred.

[3] = Photostability; assay type: physicochemical; settings: Table 13B
[4] = Table 13B, miscellaneous compounds
[5] = Table 13B, values in order of the λmax values
[6] = Table 13B, values in order of the λmax values, in M-1 cm-1
[7] = values in order of the λmax values
[8] = Table 7, values in order of the λmax values

Row | SMILES | λmax [1, 4] [nm] | E (1%, 1 cm) [1, 5] | ε [1, 6] | λcrit ([2]; Table 13B) [nm] | Photostability (%) [3] [%] | also measured
1 | CC(C)CN1C=C(C(=O)C(C)(C)C)C(C)(C)CC1 | 309 | 1137 | 28554 | 327 | 60 | 
2 | CC1(C)CCN(c2ccc(C(C)(C)C)cc2)C=C1C(OC(=O)C1c2ccccc2-c2ccccc21)=C1c2ccccc2-c2ccccc21 [Compound 206, (1-(4-(tert-butyl)phenyl)-4,4-dimethyl-1,4,5,6-tetrahydropyridin-3-yl)(9H-fluoren-9-ylidene)methyl 9H-fluorene-9-carboxylate] |  |  |  |  |  | UV λmax [1]: 407 nm; melting point: 145 °C
3 | CCOC(=O)C(=O)C1=CN(c2ccccc2)CCC1(C)C | 332 | 1210 | 34743 | 362 | 68 | 
4 | CCCCC(CC)COC(=O)CCC(=O)C1=CN(c2ccc(N3C=C(C(=O)CCC(=O)OCC(CC)CCCC)C(C)(C)CC3)cc2)CCC1(C)C (stereo not drawn) | 359 | 628 | 45301 | 379 | 52 | 
5 | CN(C)c1ccc(C(=O)C2=CN(C(C)(C)C)CCC2(C)C)cc1 [Compound 157, (1-(tert-butyl)-4,4-dimethyl-1,4,5,6-tetrahydropyridine-3-yl)(4-(dimethylamino)phenyl)methanone] |  |  |  |  |  | UV λmax [1]: 333 nm; ε (molar extinction coefficient) [1, 7]: 24966 M⁻¹ cm⁻¹; melting point: 162 to 163 °C
6 | CC1(C)CCN(C(C)(C)C)C=C1C(=O)c1c(F)c(F)c(F)c(F)c1F | 314 | 951 | 34340 | 333 | 100 | 
7 | CC1(C)CCN(C(C)(C)C)C=C1C(=O)c1ccccn1 | 317 | 635 | 17272 | 360 | 22 | 
8 | CCOC(=O)C(=O)C1=CN(C(C)(C)C)CCC1(C)C | 311 | 998 | 26668 | 344 | 50 | 
9 | Cc1cc(C)c(C(=O)C2=CN(C(C)(C)C)CCC2(C)C)c(C)c1 | 311 | 1084 | 33953 | 326 | 33 | 
10 | CC1(C)CCN(C(C)(C)C)C=C1C(=O)c1ccc(C(=O)C2=CN(C(C)(C)C)CCC2(C)C)cc1 [Compound 159, 1,4-phenylenebis((1-(tert-butyl)-4,4-dimethyl-1,4,5,6-tetrahydropyridin-3-yl)methanone)] |  |  |  |  |  | UV λmax [1]: 317 nm; ε (molar extinction coefficient) [1, 7]: 33982 M⁻¹ cm⁻¹; melting point: 243 °C (dec.)
11 | CC1(C)CCN(c2ccc(N3C=C(C(=O)CCC(F)(F)F)C(C)(C)CC3)cc2)C=C1C(=O)CCC(F)(F)F | 358 | 1090 | 59296 | 379 | 54 | 
12 | CC(C)(C)CC(C)(C)N1C=C(C(=O)/C=C/c2ccc(Br)cc2)C(C)(C)CC1 | 360 | 437 | 18987 | 386 |  | 
13 | CCCOC(=O)CCC(=O)C1=CN(c2ccc(N3C=C(C(=O)CCC(=O)OCCC)C(C)(C)CC3)cc2)CCC1(C)C | 358 | 820 | 47560 | 377 |  | 
14 | CC(C)=CCCC(C)CC(=O)C1=CN(c2ccc(N3C=C(C(=O)CC(C)CCC=C(C)C)C(C)(C)CC3)cc2)CCC1(C)C (stereo not drawn) [drawing 212] | 359 | 690 | 41400 | 379 |  | 
15 | CCCCCCCCCCCCCCCCCC(=O)C1=CN(c2ccc(N3C=C(C(=O)CCCCCCCCCCCCCCCCC)C(C)(C)CC3)cc2)CCC1(C)C | 359 | 447 | 37068 | 379 |  | 
16 | C=C/C=C/C(=O)C1=CN(CC(C)C)CCC1(C)C [drawing 117] |  |  |  |  |  | λmax ([1]; Table 7, unsaturated compounds): 352 nm; E (1%, 1 cm) [1, 8]: 730; ε [1, 8]: 18000 M⁻¹ cm⁻¹; λcrit ([2]; Table 7): 381 nm
17 | CC1(C)CCN(C(C)(C)C)C=C1C(=O)c1ccc(C(=O)O)cc1 [drawing 98] |  |  |  |  |  | E (1%, 1 cm) ([1]; Table 6B): 549; λmax ([1]; Table 6B, N-tert-butyl compounds): 317 nm; ε ([1]; Table 6B, in M-1 cm-1): 17300; λcrit ([2]; Table 6B): 353 nm
18 | CCCCCCC(=O)C1=CN(c2ccc(N3C=C(C(=O)CCCCCC)C(C)(C)CC3)cc2)CCC1(C)C | 359 |  |  | 378 |  | 

Further lines, with some results ahead:

Row | λmax [1, 4] [nm] | E (1%, 1 cm) [1, 5] | ε [1, 6] | λcrit ([2]; Table 13B) [nm] | Photostability (%) [3] [%] | SMILES | also measured
19 | 315 | 939 | 25447 | 342 | 76 | CC1(C)CCN(C(C)(C)C)C=C1C(=O)c1ccccc1 | 
20 | 316 | 653 | 45910 | 370 | 39 | CCCCC(CC)CN(c1ccc(C(=O)C2=CN(C(C)(C)C)CCC2(C)C)cc1)c1ccc(C(=O)C2=CN(C(C)(C)C)CCC2(C)C)cc1.Cl (stereo not drawn) | 
21 | 312 | 1162 | 35700 | 331 | 85 | CC1(C)CCN(C(C)(C)C)C=C1C(=O)c1c(F)cccc1F | 
22 | 360 | 395 | 20388 | 386 | 95 | CC1(C)CCN(C(C)(C)C)C=C1C(=O)/C=C/c1cccc(/C=C/C(=O)C2=CN(C(C)(C)C)CCC2(C)C)c1 | 
23 | 378 | 460 | 30963 | 388 | 2 | CCCCC(CC)COC(=O)c1cc(/C=C/C(=O)C2=CN(C(C)(C)C)CCC2(C)C)ccc1/C=C/C(=O)C1=CN(C(C)(C)C)CCC1(C)C (stereo not drawn) | 
24 | 311 | 990 | 61479 | 328 | 55 | Cc1ccc(NC(=O)C2=CN(C(C)(C)CC(C)(C)C)CCC2(C)C)cc1NC(=O)C1=CN(C(C)(C)CC(C)(C)C)CCC1(C)C | 
25 | 360 | 564 | 27646 | 385 | 77 | CC1(C)CCN(C(C)(C)C)C=C1C(=O)/C=C/c1ccc(C(=O)C2=CN(C(C)(C)C)CCC2(C)C)cc1 | 
26 | 316 | 655 | 20919 | 346 | 75 | CC1(C)CCN(C(C)(C)C)C=C1C(=O)c1ccc(F)cc1 | 
27 | 315 | 782 | 26531 | 349 | 76 | CC1(C)CCN(C(C)(C)C)C=C1C(=O)c1ccc(C(F)(F)F)cc1 | 
28 | 316 | 624 | 41598 | 369 |  | CCCCC(CC)CN(c1ccc(C(=O)C2=CN(C(C)(C)C)CCC2(C)C)cc1)c1ccc(C(=O)C2=CN(C(C)(C)C)CCC2(C)C)cc1 (stereo not drawn) | shoulder in the λmax column ([1]; Tables 5, 10, 13B): ~340 nm; Photostability (%) + Octo ([3]; with octocrylene (+ Octo)): 90%
29 |  |  |  | 364 | 22 | CN1C=C(C(=O)c2ccc(N(C)CCCCCCN(C)c3ccc(C(=O)C4=CN(C(C)(C)C)CCC4(C)C)cc3)cc2)C(C)(C)CC1 | 
30 | 316 | 626 | 21545 | 360 |  | CCCCNc1ccc(C(=O)C2=CN(C(C)(C)C)CCC2(C)C)cc1 | 
31 | 314 | 391 | 26421 | 365 |  | CC1(C)CCN(C(C)(C)C)C=C1C(=O)N(Cc1ccc(CN(C(=O)C2=CN(C(C)(C)C)CCC2(C)C)c2ccccc2)cc1)c1ccccc1 | 
